Reference: patent publication US20070037752A1, “Novel alanyl-amino peptidase inhibitors for functionally influencing different cells and treating immunological, inflammatory, neuronal, and other diseases” (priority 2003, published 2007)

biological target: alanyl aminopeptidases (APN) (Homo sapiens, UniProt P15144); assay: Inhibition of alanyl aminopeptidase enzymatic activity, fluorogenic substrate (Ala)2-rhodamine 110; type: biochemical; conditions: Table 1, unstarred values; read-out: IC50APN
Description: The inhibition characteristics measured are referred to as IC-50 values or ID50 values (the latter marked with “*”) for said enzyme. The enzymatic activity was determined by means of the fluorogenic substrate/product (Ala)2-rhodamine 110.

Chain of alanyl aminopeptidases (APN) (P15144 whole entry, species assumed): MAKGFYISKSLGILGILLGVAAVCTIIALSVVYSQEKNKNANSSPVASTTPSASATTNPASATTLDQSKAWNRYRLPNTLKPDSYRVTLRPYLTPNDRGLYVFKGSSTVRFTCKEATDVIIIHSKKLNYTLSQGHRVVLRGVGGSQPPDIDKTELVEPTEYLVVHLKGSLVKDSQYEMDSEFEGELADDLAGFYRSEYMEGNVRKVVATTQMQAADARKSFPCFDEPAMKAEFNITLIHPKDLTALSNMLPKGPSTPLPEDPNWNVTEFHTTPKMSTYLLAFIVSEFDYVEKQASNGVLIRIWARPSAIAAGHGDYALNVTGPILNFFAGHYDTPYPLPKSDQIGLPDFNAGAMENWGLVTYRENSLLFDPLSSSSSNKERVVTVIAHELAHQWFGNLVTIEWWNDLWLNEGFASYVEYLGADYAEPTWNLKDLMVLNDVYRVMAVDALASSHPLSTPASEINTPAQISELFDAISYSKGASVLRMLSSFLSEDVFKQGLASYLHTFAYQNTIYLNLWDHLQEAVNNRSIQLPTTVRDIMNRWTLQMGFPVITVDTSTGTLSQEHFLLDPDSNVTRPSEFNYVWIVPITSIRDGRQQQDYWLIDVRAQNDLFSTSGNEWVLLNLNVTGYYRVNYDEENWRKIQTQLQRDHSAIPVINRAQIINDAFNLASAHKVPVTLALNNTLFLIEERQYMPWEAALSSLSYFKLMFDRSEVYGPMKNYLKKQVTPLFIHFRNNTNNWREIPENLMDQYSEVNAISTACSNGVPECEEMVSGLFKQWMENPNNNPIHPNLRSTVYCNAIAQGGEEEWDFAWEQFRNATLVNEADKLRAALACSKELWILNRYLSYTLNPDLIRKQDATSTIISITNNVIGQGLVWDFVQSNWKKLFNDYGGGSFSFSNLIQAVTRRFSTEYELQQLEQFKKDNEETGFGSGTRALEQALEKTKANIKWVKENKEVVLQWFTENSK

Compound	IC50 [µM]
O=C(ON1C(=O)CCC1=O)C1CCC(=O)N1C(=O)OCc1ccccc1 (centres unmarked) [A1.007]	8.4
N#CCCCCCCCCC(=O)NO [A1.015]	80.6

Continued, values first:

IC50 [µM]	Compound
5.6	Cc1cc(Cl)ccc1OCCC(=O)NO [A1.002]
6.3	O=C(CCOC(c1ccccc1)c1ccc(Br)cc1)NO (centres unmarked) [A1.003]
6.4	O=C(COc1ccc(Br)cc1)NO [A1.004]
7.3	O=C(CCOC(c1ccccc1)c1ccc(Cl)cc1)NO (centres unmarked) [A1.005]
7.5	CCOc1ccc(CC(=O)NO)cc1 [A1.006]
11.5	O=C(CS(=O)(=O)c1ccc(Cl)cc1)NO [A1.008]
14.1	O=C(CCCCCN1C(=O)c2cccc3cccc(c23)C1=O)NO [A1.009]
14.2	Cc1ccc(C(OCCC(=O)NO)c2ccccc2)cc1 (centres unmarked) [A1.010]
17.1	O=C(O)C1N=NC(c2ccc(F)cc2)=CN1O (centres unmarked) [A1.011]
21.8	O=C(CCOC(c1ccc(F)cc1)c1ccc(F)cc1)NO [A1.012]
25.2	CC(CCc1ccccc1)C(=O)NO (centres unmarked) [A1.013]
33	COc1ccc(C(OCCC(=O)NO)c2ccccc2)cc1 (centres unmarked) [A1.014]

same assay, conditions: Table 2; read-out: IC50APN

IC50 [µM]	Compound
2.2	CCCCc1noc2c1/C(=N/O)CC(c1ccccc1)C2 (centres unmarked) [A2.001]
8.6	C/C(=N/O)c1ccc2c(c1)OCCOCCOc1cc(/C(C)=N\O)ccc1OCCOCCO2 [A2.002]
10.9	Cc1ccc(/C=N/NC(=O)c2nnn(-c3nonc3N)c2C)o1 [A2.003]
12.5	COCc1nnn(-c2nonc2N)c1C(=O)N/N=C/c1ccco1 [A2.004]
13.4	N/C(=N/OS(=O)(=O)c1ccc(C(F)(F)F)cc1)C1CSCCS1 (centres unmarked) [A2.006]
14.6	N/C(=N\N=C\c1ccco1)c1nonc1N [A2.007]
46.6	Nc1nonc1-n1nnc(C(=O)N/N=C/c2ccco2)c1-c1ccccc1 [A2.008]
93.6	COC(=O)CCC/C=C1/SC[C@@H](NC(=O)c2ccccc2)/C1=N/O [A2.010]

same assay, conditions: Table 3, starred values = ID50; read-out: ID50 APN (values marked with *)

Compound	IC50 [µM]
CC1=C(C#N)C(=O)N(CCO)C(=O)/C1=C\c1ccc(-c2cc(Cl)ccc2Cl)o1 [A3.003]	1.2
CCCCc1noc2c1/C(=N/O)CC(c1ccccc1)C2 (centres unmarked) [A3.006]	2.2
Nc1ccc2c(c1)C/C(=C\c1ccco1)C2=O [A3.008]	2.6

Next, values leading:

IC50 [µM]	Compound
0.9	CCOC(=O)c1ncn(C(=O)OC)c1N [A3.002]
2.6	CCOC(=O)c1nc[nH]c1N [A3.007]

same assay, conditions: Table 3, unstarred values

IC50APN	Compound
“very high	COC(=O)C1=C(N)N2C(=O)CSC2=C(C(=O)OC)C1 [A3.001]

same assay, conditions: Table 3, unstarred values; read-out: IC50APN

Compound	IC50 [µM]
O=C(Nc1cccc(/N=C/c2cc(I)cc(I)c2O)c1)c1ccco1 [A3.009]	3
O=C(Nc1cccc(/N=C/c2cc(/N=N\c3ccccc3Cl)ccc2O)c1)c1ccco1 [A3.011]	3.6
CCOC(=O)c1nc(C)[nH]c1N [A3.012]	4.3
Cc1cc(C)c(C)c(C(=O)COC(=O)c2ccc(-n3c(C)ccc3C)cc2)c1C [A3.014]	4.5
COc1ccc(/C=N/NC(=O)C2=C(C)Nc3ccccc3S2)cc1Cn1nc(C)c(Br)c1C [A3.016]	4.8
O=C(Nc1ccc(NCc2cc(Cc3ccccc3Cl)cc(Br)c2O)cc1)c1ccco1 [A3.017]	4.9
COC(=O)c1ccc(-c2ccc(/C=C3\C(=O)N(CCCO)C(=O)C(C#N)=C3C)o2)cc1 [A3.018]	5
CC1CCN(C(=O)/C(=C\c2ccco2)NC(=O)c2ccc(Cl)cc2)CC1 [A3.022]	6.2
COC(=O)c1cccc(-c2ccc(/C=C3\C(=O)N(CCO)C(=O)C(C#N)=C3C)o2)c1 [A3.023]	6.3
CCc1cccc(CC)c1NC(=S)N/N=C1\C(=O)N(CN2CC(C)CC(C)C2)c2ccccc21 (centres unmarked) [A3.024]	6.6
Cc1ccc(/C=N/NC(=O)c2nnn(-c3nonc3N)c2-c2ccccc2)o1 [A3.025]	6.9
CCOC(=O)C1C(C)C2C3C(=O)N(c4cccc5ccccc45)C(=O)C3C1(C)C1C(=O)N(c3cccc4ccccc34)C(=O)C21 (centres unmarked) [A3.027]	7.4
O=C(N/N=C\c1ccco1)c1ccc(S(=O)(=O)N2CCCCCC2)cc1 [A3.029]	8
COc1ccc(Cl)cc1C(=O)N/C(=C/c1ccco1)C(=O)N1CC2CC(C1)c1cccc(=O)n1C2 (centres unmarked) [A3.030]	8.1
CC1=C(C#N)C(=O)N(CCCO)C(=O)/C1=C\c1ccc(-c2cc(C)c(C)cc2[N+](=O)[O-])o1 [A3.037]	9.7
Cc1ccc(/C=N/NC(=O)c2cccc(NC(=O)c3ccc(F)cc3)c2)o1 [A3.038]	9.8
O=C(N/C(=C\c1ccco1)C(=O)N1CCCCC1)c1ccco1 [A3.040]	10.6
Cc1ccc(/C=N/NC(=O)c2nnn(-c3nonc3N)c2C)o1 [A3.041]	10.9
Cc1ccc(C(=O)N/C(=C\c2ccco2)C(=O)N2CC3CC(C2)c2cccc(=O)n2C3)cc1 (centres unmarked) [A3.042]	11
C=CC[N+]1=C(/C=C2\SC(c3ccccc3)=C(c3ccccc3)N2CC)S/C(=C/C=C2\SC(c3ccccc3)=C(c3ccccc3)N2CC)C1=O [A3.045]	11.1
Cc1[nH]c2ccccc2c1C(c1cc(Cl)ccc1O)N1CCOCC1 (centres unmarked) [A3.046]	11.7
Cc1ccc(C(=O)N/C(=C\c2ccco2)C(=O)N2CC3CC(C2)c2cccc(=O)n2C3)cc1C (centres unmarked) [A3.048]	11.8

Compound	IC50 [µM]
CCOc1cc(/C=N/NC(=O)CNC(=O)c2cccc(Cl)c2)ccc1OC(=O)c1cccs1 [A3.051]	12.2
Cc1nc(N)sc1C(=O)N/N=C/c1ccco1 [A3.052]	12.3
COCc1c(C(=O)N/N=C/c2ccc(C)o2)nnn1-c1nonc1N [A3.053]	12.5
O=C(N/C(=C\c1ccco1)C(=O)N1CCOCC1)c1ccco1 [A3.058]	13.5
COC(=O)N/N=C(C)\C=C\c1ccco1 [A3.059]	13.5
CCc1ccc(-c2cc(C(=O)N/N=C/c3c(C)nn(-c4ccccc4)c3C)[nH]n2)cc1 [A3.061]	13.6
O=C(N/N=C/c1ccco1)c1cc(C2CC2)n[nH]1 [A3.064]	14.3
Clc1ccc(-n2cc3c(-c4ccco4)nnc(-c4nc5ccccc5s4)c3n2)cc1 [A3.065]	14.3
O=c1[nH]c(/C=C/c2ccco2)cc2ccccc12 [A3.067]	14.6
N/C(=N\N=C\c1ccco1)c1nonc1N [A3.068]	14.6
COC(=O)c1cc(-c2ccc(/C=C3\C(=O)N(CCCO)C(=O)C(C#N)=C3C)o2)ccc1Cl [A3.069]	15.2
O=C(NNC1=C(Cl)C(=O)C(Cl)(Cl)C1=O)c1ccccc1 [A3.070]	15.2
O=C(CNC(=O)C(c1ccccc1)c1ccccc1)N/N=C/c1ccco1 [A3.071]	15.6
CCOC(=O)CCCCC(=O)c1c(C)n(C(=O)c2ccc(N3C(=O)CCC3=O)cc2)c(=O)n1C(=O)c1ccc(N2C(=O)CCC2=O)cc1 [A3.072]	15.6
O=C(N/N=C/C=C\c1ccco1)c1ccco1 [A3.074]	16
Cc1ccc(NC(=O)/C(=C\c2ccco2)NC(=O)c2ccc(C)cc2)cc1 [A3.077]	16.4
COc1ccc(C2NCCS2)cc1Br (centres unmarked) [A3.078]	16.4
CC(C)c1cc(C(=O)N/N=C/c2ccco2)[nH]n1 [A3.080]	16.6
COc1ccc(/C=C(/NC(=O)c2ccccc2)C(=O)N/N=C\C=C\c2ccc(C)o2)cc1OC [A3.081]	16.7
COc1cc(/C=N/NC(=O)c2cc(-c3ccco3)n[nH]2)cc(OC)c1OC [A3.083]	17
Cc1ccc(NC(=O)/C(=C\c2ccco2)NC(=O)c2ccccc2Cl)cc1 [A3.086]	17.9
C=CCOC(=O)c1cc(-c2ccc(/C=C3/C(=O)N(CCCO)C(=O)C(C#N)=C3C)o2)ccc1Cl [A3.087]	18.1

Next, values leading:

IC50 [µM]	Compound
3.4	C/C(Cn1nnc([N+](=O)[O-])n1)=N/NC(=O)COc1ccccc1[N+](=O)[O-] [A3.010]
4.7	COC(=O)C1=C(C(=O)OC)C(c2cc(Br)ccc2O)c2sc(O)nc2S1 (centres unmarked) [A3.015]
5.2	O=C(CCC(=O)Nc1ccc(Br)cc1)N/N=C/c1ccco1 [A3.019]
5.4	CCOC(=O)c1c(N)ncn1-c1ccccc1 [A3.020]
7.3	CCOC(=O)N1CCc2c(sc(NC(=O)c3ccc(F)cc3)c2C(=O)Nc2ccc(Br)cc2)C1 [A3.026]
8.2	O=C(Nc1cccc(/N=C/c2cc(Br)cc(Br)c2O)c1)c1ccco1 [A3.031]
8.3	CCCCOC(=O)c1ccc(NC(=O)/C=C\c2ccco2)cc1 [A3.032]
8.4	O=C(/C=C/c1ccco1)Nc1ccc(C(=O)O)cc1 [A3.033]
9.5	COc1ccc(C2NCCS2)cc1 (centres unmarked) [A3.035]
10.5	Cc1ccc(/C=N/NC(=O)c2cccc(Cl)c2)o1 [A3.039]
11	COc1cc(Br)ccc1OCC(=O)N/N=C/C=C/c1ccco1 [A3.043]
11.8	NNC(=O)c1ccc(NS(=O)(=O)c2cccs2)cc1 [A3.047]
12	C/C(=N\NC(=O)CNC(=O)/C=C/c1ccco1)c1ccc2ccccc2c1 [A3.050]
12.8	CCN(CC)C(=O)/C(=C/c1ccco1)NC(=O)c1ccccc1 [A3.054]
12.9	Cc1cccc(C)c1NC(=S)NC(=O)c1cccs1 [A3.055]
12.9	O=C(COc1cccc2ccccc12)N/N=C/c1ccco1 [A3.056]
13.1	CC(C)COc1ccc(C(=O)N/C(=C\c2ccco2)C(=O)N2CCOCC2)cc1 [A3.057]
13.6	O=C(COc1ccc(F)cc1)N/N=C/c1ccco1 [A3.060]
13.9	O=C(COc1ccc2ccccc2c1)N/N=C/c1ccco1 [A3.062]
14	CCOC(=O)c1ncn(Cc2ccccc2)c1N [A3.063]
14.4	O=C(N/N=C/c1ccco1)c1cc(-c2ccc(F)cc2)n[nH]1 [A3.066]
15.6	Cc1ccc(/C=C(\NC(=O)c2ccccc2)C(=O)NC2CC2)o1 [A3.073]
16	O=C(N/N=C/c1ccco1)c1ccccc1O [A3.075]
16	Cc1ccc(/C=N/NC(=O)COc2ccc(Cl)cc2)o1 [A3.076]
16.8	O=C(N/N=C/c1ccco1)c1ccc(O)cc1 [A3.082]
17.7	Cc1ccc(/C=N/NC(=O)c2ccccc2Cl)o1 [A3.084]
